Source: PMC10746543, “Design principles for cyclin K molecular glue degraders” (Nature Chemical Biology, 2023)
“And” between values parts separate entries of the source, which are not always exact repeats. Identical values can stand only once. Like-named read-outs stand apart in the source and are kept apart here.

Key:
[1] = system: HEK293T cells; assay: Drug sensitivity assay (CellTiter-Glo viability) with or without MLN4924 pretreatment; type: cell-based, human; details: for EC50: Homo sapiens, HEK-293T
In short: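 HEK293T–Cas9 cells at 0.15 × 10^6 ml^−1 were treated with DMSO or 100 nM MLN4924 before plating. Test drugs were added 2 h later and exposure lasted 3 days. Viability was read by CellTiter-Glo luminescence and expressed relative to DMSO controls.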

[2] = molecular target: T1, CDK12–cyclin K and DDB1 (Homo sapiens, UniProt Q16531+Q9NYV4, K965R); assay: TR-FRET Kd determination, quadratic fit, 50 nM or 10 nM CDK12–cyclin K; type: binding; details: for Kd: n = 1
T1 construct: His6–CDK12 (a.a. 713–1,052); full-length or beta-propeller B domain deletion (ΔBPB: a.a. 396–705 deleted) constructs of His6–DDB1ΔBPB, StrepII–Avi–DDB1, or His6–Spy–DDB1; made in house; host or cells: Trichoplusia ni High Five insect cells (baculovirus)
From the text: Equation (2) is a quadratic binding equation used for Kd determination,where Top and Bottom refer to the curve plateaus. […]

[3] = system: cyclin K–eGFP degradation reporter; assay: Cyclin K reporter stability analysis (dual-color cyclin K–eGFP reporter); type: cell-based, human; details: Supplementary Table 2; HEK293T cycK-eGFP reporter, 5 h; read-out: Cellular assays DC50
In short: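 First, reporter-bearing HEK293T–Cas9 cells are plated at 1 × 10^6 ml^−1. Next, drug or vehicle is added for 5 h. Finally, geometric-mean eGFP and mCherry signals of round, mCherry-positive cells are measured cytometrically, and their ratio is referenced to the DMSO average.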

[4] = molecular target: T1, CDK12–cyclin K and DDB1; assay: TR-FRET ternary complex formation assay (compound titration); type: binding
In short: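 Read-out used a 70 μs delay to cut background fluorescence; TR-FRET signal taken as the 520 nm/490 nm emission ratio.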

T1 sequence (Q9NYV4 713-1052 K965R): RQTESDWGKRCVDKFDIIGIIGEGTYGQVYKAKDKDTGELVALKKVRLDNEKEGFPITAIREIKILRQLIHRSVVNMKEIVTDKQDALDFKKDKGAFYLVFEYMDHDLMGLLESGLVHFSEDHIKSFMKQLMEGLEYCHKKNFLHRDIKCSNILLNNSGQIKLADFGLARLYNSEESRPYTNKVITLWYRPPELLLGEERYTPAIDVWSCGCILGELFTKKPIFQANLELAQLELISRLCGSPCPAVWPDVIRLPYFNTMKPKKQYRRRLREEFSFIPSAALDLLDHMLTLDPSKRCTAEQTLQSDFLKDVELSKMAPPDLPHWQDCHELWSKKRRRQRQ
T1 sequence (O75909 1-267 partner): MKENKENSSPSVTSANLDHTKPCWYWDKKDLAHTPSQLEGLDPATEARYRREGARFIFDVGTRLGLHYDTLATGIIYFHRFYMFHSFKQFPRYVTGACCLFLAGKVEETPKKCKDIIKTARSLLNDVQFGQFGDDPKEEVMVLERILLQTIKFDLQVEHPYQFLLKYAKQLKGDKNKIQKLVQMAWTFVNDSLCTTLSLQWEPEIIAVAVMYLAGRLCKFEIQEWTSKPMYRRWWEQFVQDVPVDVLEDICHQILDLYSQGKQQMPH
T1 sequence (Q16531 whole entry): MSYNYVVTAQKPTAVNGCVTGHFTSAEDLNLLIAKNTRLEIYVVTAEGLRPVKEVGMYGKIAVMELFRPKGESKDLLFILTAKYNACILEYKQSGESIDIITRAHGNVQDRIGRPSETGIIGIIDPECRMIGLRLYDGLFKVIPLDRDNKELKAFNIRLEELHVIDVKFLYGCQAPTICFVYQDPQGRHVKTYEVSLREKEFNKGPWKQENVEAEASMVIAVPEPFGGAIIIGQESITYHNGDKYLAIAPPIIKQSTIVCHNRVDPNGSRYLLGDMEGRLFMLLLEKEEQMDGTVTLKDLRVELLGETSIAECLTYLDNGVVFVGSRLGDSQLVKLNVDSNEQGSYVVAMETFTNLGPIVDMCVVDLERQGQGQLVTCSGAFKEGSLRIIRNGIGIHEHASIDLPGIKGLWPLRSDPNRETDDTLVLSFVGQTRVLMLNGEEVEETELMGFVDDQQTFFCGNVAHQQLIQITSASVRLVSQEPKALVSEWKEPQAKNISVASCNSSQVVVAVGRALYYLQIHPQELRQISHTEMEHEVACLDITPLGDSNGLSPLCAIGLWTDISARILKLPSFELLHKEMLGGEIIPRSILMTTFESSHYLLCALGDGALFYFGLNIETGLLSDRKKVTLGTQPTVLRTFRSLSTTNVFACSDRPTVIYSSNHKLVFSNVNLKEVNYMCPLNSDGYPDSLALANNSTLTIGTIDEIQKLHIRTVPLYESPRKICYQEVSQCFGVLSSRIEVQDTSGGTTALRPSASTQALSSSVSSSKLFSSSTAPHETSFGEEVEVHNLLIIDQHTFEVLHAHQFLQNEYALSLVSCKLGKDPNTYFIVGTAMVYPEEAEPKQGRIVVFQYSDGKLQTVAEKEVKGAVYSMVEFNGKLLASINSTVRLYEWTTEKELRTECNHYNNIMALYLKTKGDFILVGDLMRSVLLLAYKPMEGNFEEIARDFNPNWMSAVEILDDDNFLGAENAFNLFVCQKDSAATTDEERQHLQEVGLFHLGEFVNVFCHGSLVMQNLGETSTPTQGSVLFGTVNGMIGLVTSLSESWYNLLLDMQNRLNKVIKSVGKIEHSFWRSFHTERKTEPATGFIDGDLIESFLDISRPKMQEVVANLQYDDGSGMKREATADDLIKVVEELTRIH

`CCC(CO)Nc1nc(NCc2ccc(-c3ccccc3)cc2)c2ncn(C(C)C)c2n1` (centres unmarked) [DS16] was tested. Which EC50 ([1]; Supplementary Fig. 5, HEK293T, CellTiter Glo, 72h, pre-treatment with 100 nM MLN4924, read-out: Viability EC50, with MLN4924) did it give?
The EC50 was 15 µM.

And the EC50 ([1]; Supplementary Table 2, HEK293T viability, 72 h, compound alone, read-out: Cellular assays EC50)?
Its EC50 is 0.6 µM.

And the “% MLN4924 rescue” value ([1]; PCA input)?
The value was 1490%.

And the Toxicity rescue ([1]; Supplementary Table 2, MLN4924-mediated cytotoxicity rescue, 10 µM used where n.d.)?
The Toxicity rescue was 1567%.

And the Kd ([2]; 10 nM CDK12-cyclin K + 100 nM DDB1)?
The Kd was 4 ± 1 nM.

And the TR-FRET signal ([2]; 10 nM CDK12-cyclin K, compound 0.468 nM)?
Its TR-FRET signal is 0.1087.

What about the TR-FRET signal ([2]; 10 nM CDK12-cyclin K, compound 2.16 nM) of the same compound?
Its TR-FRET signal is 0.1516.

And the TR-FRET signal ([2]; 10 nM CDK12-cyclin K, compound 3.6 nM)?
Its TR-FRET signal is 0.2175.

And the TR-FRET signal ([2]; 10 nM CDK12-cyclin K, compound 7.92 nM)?
Its TR-FRET signal is 0.2964.

What about the TR-FRET signal ([2]; 10 nM CDK12-cyclin K, compound 15.84 nM) of the same compound?
The TR-FRET signal was 0.3471.

What about the TR-FRET signal ([2]; 10 nM CDK12-cyclin K, compound 30.96 nM) of the same compound?
Its TR-FRET signal is 0.4043.

What about the TR-FRET signal ([2]; 10 nM CDK12-cyclin K, compound 62.6399 nM) of the same compound?
The TR-FRET signal was 0.4639.

And the TR-FRET signal ([2]; 10 nM CDK12-cyclin K, compound 125.279 nM)?
Its TR-FRET signal is 0.4363.

And the TR-FRET signal ([2]; 10 nM CDK12-cyclin K, compound 244.8 nM)?
The TR-FRET signal was 0.4586.

And the TR-FRET signal ([2]; 10 nM CDK12-cyclin K, compound 993.6 nM)?
Its TR-FRET signal is 0.4753.

What about the TR-FRET signal ([2]; 10 nM CDK12-cyclin K, compound 2001.6 nM) of the same compound?
The TR-FRET signal was 0.4769.

What about the Kd ([2]; 50 nM CDK12-cyclin K + 100 nM DDB1) of the same compound?
The Kd was 6 ± 2 nM.

And the TR-FRET signal ([2]; 50 nM CDK12-cyclin K, compound 0.468 nM)?
Its TR-FRET signal is 0.2249.

And the TR-FRET signal ([2]; 50 nM CDK12-cyclin K, compound 2.16 nM)?
Its TR-FRET signal is 0.2842.

And the TR-FRET signal ([2]; 50 nM CDK12-cyclin K, compound 3.6 nM)?
Its TR-FRET signal is 0.3938.

And the TR-FRET signal ([2]; 50 nM CDK12-cyclin K, compound 7.92 nM)?
Its TR-FRET signal is 0.6539.

And the TR-FRET signal ([2]; 50 nM CDK12-cyclin K, compound 15.84 nM)?
The TR-FRET signal was 1.0227.

What about the TR-FRET signal ([2]; 50 nM CDK12-cyclin K, compound 30.96 nM) of the same compound?
The TR-FRET signal was 1.706.

What about the TR-FRET signal ([2]; 50 nM CDK12-cyclin K, compound 62.6399 nM) of the same compound?
Its TR-FRET signal is 2.089.

What about the TR-FRET signal ([2]; 50 nM CDK12-cyclin K, compound 125.279 nM) of the same compound?
Its TR-FRET signal is 2.303.

And the TR-FRET signal ([2]; 50 nM CDK12-cyclin K, compound 244.8 nM)?
The TR-FRET signal was 2.498.

What about the TR-FRET signal ([2]; 50 nM CDK12-cyclin K, compound 993.6 nM) of the same compound?
The TR-FRET signal was 2.704.

What about the TR-FRET signal ([2]; 50 nM CDK12-cyclin K, compound 2001.6 nM) of the same compound?
Its TR-FRET signal is 2.6928.

And the DC50 [3]?
The DC50 was 1030 nM.

What about the “TR-FRET signal, individual replicate” value ([4]; compound concentration 0.468 nM) of the same compound?
Its value is 0.2708 and 0.2758 and 0.8924 and 0.6371.

What about the “TR-FRET signal, individual replicate” value ([4]; compound concentration 2.16 nM) of the same compound?
The value was 0.3875 and 0.4113 and 0.3298 and 0.5644.

And the “TR-FRET signal, individual replicate” value ([4]; compound concentration 3.6 nM)?
The value was 0.6563 and 0.6817 and 0.5785 and 0.7591.

What about the “TR-FRET signal, individual replicate” value ([4]; compound concentration 7.92001 nM) of the same compound?
The value was 1.219 and 1.2973 and 0.9793 and 1.183.

And the “TR-FRET signal, individual replicate” value ([4]; compound concentration 15.84 nM)?
Its value is 2.2073 and 2.2521 and 2.043 and 2.171.

What about the “TR-FRET signal, individual replicate” value ([4]; compound concentration 30.96 nM) of the same compound?
Its value is 3.25 and 3.347 and 3.281 and 3.173.

And the “TR-FRET signal, individual replicate” value ([4]; compound concentration 62.6401 nM)?
The value was 3.39 and 3.868 and 3.793 and 3.73.

And the “TR-FRET signal, individual replicate” value ([4]; compound concentration 125.28 nM)?
The value was 3.865 and 4.101 and 4.033 and 4.091.

What about the “TR-FRET signal, individual replicate” value ([4]; compound concentration 244.8 nM) of the same compound?
The value was 3.936 and 4.169 and 4.142 and 4.064.

And the “TR-FRET signal, individual replicate” value ([4]; compound concentration 993.601 nM)?
Its value is 4.054 and 4.241 and 4.216 and 4.146.

What about the “TR-FRET signal, individual replicate” value ([4]; compound concentration 2001.6 nM) of the same compound?
Its value is 3.9849 and 4.219 and 4.148 and 4.067.

And the “DDB1–CDK12 complex formation, result in words” value ([4]; in vitro TR-FRET)?
The value was “activity equivalent to CR8”.

What about the EC50 ([4]; in vitro complex formation, 50 nM CDK12–cyclin K, 100 nM DDB1, text and figures, read-out: TR-FRET EC50) of the same compound?
The EC50 was 17 ± 1 nM.

And the EC50 ([4]; sheet MOESM7, read-out: log TR-FRET EC50 (converted))?
The EC50 was 16.7 nM.

What about the EC50 ([4]; source data sheet correlations, read-out: TR-FRET EC50) of the same compound?
The EC50 was 16.7 nM.
